Experimental data taken from US20150344540A1, “NOVEL GLP-1 RECEPTOR AGONISTS WITH CHOLESTEROL EFFLUX ACTIVITY” (NOVO NORDISK A/S, priority 2012, published 2015).
pEC50: −log10 of the molar value. Where a SMILES comes first, the peptide text is derived from it. [ ]: non-standard residue; d: D form. Aib = CC(C)(N)C(=O)O

System: Mouse monocyte/macrophage cell line, RAW 264.7
Assay: Cholesterol efflux assay (3H-cholesterol, macrophage cell line)
Type: cell-based
Conditions: RAW 264.7, 4 hrs incubation, 0.1% human serum albumin; for 4 h Cholesterol Efflux Emax: ABCA1-mediated efflux; for pEC50: read-out: 4 h Cholesterol Efflux EC50, ABCA1-mediated efflux (CPT-cAMP induced minus non-induced)

Structure (SMILES)	4 h Cholesterol Efflux Emax	pEC50
CC[C@H](C)[C@H](NC(=O)[C@H](Cc1ccccc1)NC(=O)[C@H](CCC(=O)O)NC(=O)[C@H](CCCCN)NC(=O)[C@@H](NC(=O)[C@H](C)NC(=O)[C@H](CCC(=O)O)NC(=O)CNC(=O)[C@H](CCC(=O)O)NC(=O)[C@H](CC(C)C)NC(=O)[C@H](Cc1ccc(O)cc1)NC(=O)[C@H](CO)NC(=O)[C@H](CO)NC(=O)[C@@H](NC(=O)[C@H](CC(=O)O)NC(=O)[C@H](CO)NC(=O)[C@@H](NC(=O)[C@H](Cc1ccccc1)NC(=O)[C@@H](NC(=O)CNC(=O)[C@H](CCC(=O)O)NC(=O)C(C)(C)NC(=O)[C@@H](N)Cc1c[nH]cn1)[C@@H](C)O)[C@@H](C)O)C(C)C)C(C)C)C(=O)N[C@@H](CCCCN)C(=O)N[C@@H](Cc1c[nH]c2ccccc12)C(=O)N[C@@H](CC(C)C)C(=O)N[C@H](C(=O)N[C@@H](CCC(=O)O)C(=O)N[C@@H](CCCCN)C(=O)N[C@@H](CC(C)C)C(=O)N[C@@H](CCCCN)C(=O)N[C@@H](CCC(=O)O)C(=O)N[C@@H](Cc1ccccc1)C(=O)N[C@@H](CC(C)C)C(N)=O)C(C)C [Compound 85, [Aib8,Glu23,Val25,Lys30,Glu34,Lys35,Leu36,Lys37]-GLP-1-(7-37)-peptidyl-Glu-Phe-Leu amide] (H-H[Aib]EGTFTSDVSSYLEGEAVKEFIKWLVEKLKEFL-NH2)	93%	
CC[C@H](C)[C@H](NC(=O)[C@H](Cc1ccccc1)NC(=O)[C@H](CCC(=O)O)NC(=O)[C@H](CCCCN)NC(=O)[C@@H](NC(=O)[C@H](C)NC(=O)[C@H](CCC(=O)O)NC(=O)CNC(=O)[C@H](CCC(=O)O)NC(=O)[C@H](CC(C)C)NC(=O)[C@H](Cc1ccc(O)cc1)NC(=O)[C@H](CO)NC(=O)[C@H](CO)NC(=O)[C@@H](NC(=O)[C@H](CC(=O)O)NC(=O)[C@H](CO)NC(=O)[C@@H](NC(=O)[C@H](Cc1ccccc1)NC(=O)[C@@H](NC(=O)CNC(=O)[C@H](CCC(=O)O)NC(=O)C(C)(C)NC(=O)[C@@H](N)Cc1c[nH]cn1)[C@@H](C)O)[C@@H](C)O)C(C)C)C(C)C)C(=O)N[C@@H](C)C(=O)N[C@@H](Cc1c[nH]c2ccccc12)C(=O)N[C@@H](CC(C)C)C(=O)N[C@H](C(=O)N[C@@H](CCC(=O)O)C(=O)N[C@@H](CCCCN)C(=O)NC(C)(C)C(=O)N[C@@H](CC(C)C)C(=O)N[C@@H](CO)C(=O)N[C@@H](Cc1ccccc1)C(=O)N[C@@H](CC(C)C)C(N)=O)C(C)C [Compound 88] (H-H[Aib]EGTFTSDVSSYLEGEAVKEFIAWLVEK[Aib]LSFL-NH2)	69%	
CC[C@H](C)[C@H](NC(=O)[C@H](Cc1ccccc1)NC(=O)[C@H](CCC(=O)O)NC(=O)[C@H](CCCCN)NC(=O)[C@@H](NC(=O)[C@H](C)NC(=O)[C@H](CCC(=O)O)NC(=O)CNC(=O)[C@H](CCC(=O)O)NC(=O)[C@H](CC(C)C)NC(=O)[C@H](Cc1ccc(O)cc1)NC(=O)[C@H](CO)NC(=O)[C@H](CO)NC(=O)[C@@H](NC(=O)[C@H](CC(=O)O)NC(=O)[C@H](CO)NC(=O)[C@@H](NC(=O)[C@H](Cc1ccccc1)NC(=O)[C@@H](NC(=O)CNC(=O)[C@H](CCC(=O)O)NC(=O)C(C)(C)NC(=O)[C@@H](N)Cc1c[nH]cn1)[C@@H](C)O)[C@@H](C)O)C(C)C)C(C)C)C(=O)N[C@@H](C)C(=O)N[C@@H](Cc1c[nH]c2ccccc12)C(=O)N[C@@H](CC(C)C)C(=O)N[C@@H](CC(C)C)C(=O)N[C@@H](CCC(=O)O)C(=O)N[C@@H](CCCCN)C(=O)NC(C)(C)C(=O)N[C@@H](CCCCN)C(=O)N[C@@H](CCC(=O)O)C(=O)N[C@@H](Cc1c[nH]c2ccccc12)C(=O)N[C@@H](CC(C)C)C(N)=O [Compound 89, [Aib8,Glu23,Val25,Leu33,Glu34,Lys35,Aib36,Lys37]-GLP-1-(7-37)-peptidyl-Glu-Trp-Leu amide] (H-H[Aib]EGTFTSDVSSYLEGEAVKEFIAWLLEK[Aib]KEWL-NH2)	102%	
CC[C@H](C)[C@H](NC(=O)[C@H](Cc1ccccc1)NC(=O)[C@H](CCC(=O)O)NC(=O)[C@H](CCCCN)NC(=O)[C@@H](NC(=O)[C@H](C)NC(=O)[C@H](CCCCN)NC(=O)CNC(=O)[C@H](CCC(=O)O)NC(=O)[C@H](CC(C)C)NC(=O)[C@H](Cc1ccc(O)cc1)NC(=O)[C@H](CO)NC(=O)[C@H](CO)NC(=O)[C@@H](NC(=O)[C@H](CC(=O)O)NC(=O)[C@H](CO)NC(=O)[C@@H](NC(=O)[C@H](Cc1ccccc1)NC(=O)[C@@H](NC(=O)CNC(=O)[C@H](CCC(=O)O)NC(=O)C(C)(C)NC(=O)[C@@H](N)Cc1c[nH]cn1)[C@@H](C)O)[C@@H](C)O)C(C)C)C(C)C)C(=O)N[C@@H](C)C(=O)N[C@@H](Cc1c[nH]c2ccccc12)C(=O)N[C@@H](CC(C)C)C(=O)N[C@H](C(=O)N[C@@H](CCC(=O)O)C(=O)N[C@@H](CCCCN)C(=O)NC(C)(C)C(=O)N[C@@H](CCCCN)C(=O)N[C@@H](CCC(=O)O)C(=O)N[C@@H](Cc1ccccc1)C(=O)N[C@@H](CC(C)C)C(N)=O)C(C)C [Compound 90, [Aib8,Lys23,Val25,Glu34,Lys35,Aib36,Lys37]-GLP-1-(7-37)-peptidyl-Glu-Phe-Leu amide] (H-H[Aib]EGTFTSDVSSYLEGKAVKEFIAWLVEK[Aib]KEFL-NH2; N-terminus assumed)	110%	
CC[C@H](C)[C@H](NC(=O)[C@H](Cc1ccccc1)NC(=O)[C@H](CCC(=O)O)NC(=O)[C@H](CCCCN)NC(=O)[C@@H](NC(=O)[C@H](C)NC(=O)[C@H](CCC(=O)O)NC(=O)CNC(=O)[C@H](CCC(=O)O)NC(=O)[C@H](CC(C)C)NC(=O)[C@H](Cc1ccc(O)cc1)NC(=O)[C@H](CO)NC(=O)[C@H](CO)NC(=O)[C@@H](NC(=O)[C@H](CC(=O)O)NC(=O)[C@H](CO)NC(=O)[C@@H](NC(=O)[C@H](Cc1ccccc1)NC(=O)[C@@H](NC(=O)CNC(=O)[C@H](CCC(=O)O)NC(=O)C(C)(C)NC(=O)[C@@H](N)Cc1c[nH]cn1)[C@@H](C)O)[C@@H](C)O)C(C)C)C(C)C)C(=O)N[C@@H](C)C(=O)N[C@@H](Cc1c[nH]c2ccccc12)C(=O)N[C@@H](CC(C)C)C(=O)N[C@H](C(=O)N[C@@H](CCC(=O)O)C(=O)N[C@@H](CCCCN)C(=O)N[C@@H](Cc1ccccc1)C(=O)N[C@@H](CCCCN)C(=O)N[C@@H](CCC(=O)O)C(=O)N[C@@H](Cc1ccccc1)C(=O)N[C@@H](Cc1ccccc1)C(N)=O)C(C)C [Compound 93, [Aib8,Glu23,Val25,Glu34,Lys35,Phe36,Lys37]-GLP-1-(7-37)-peptidyl-Glu-Phe-Phe amide] (H-H[Aib]EGTFTSDVSSYLEGEAVKEFIAWLVEKFKEFF-NH2)	113%	
CC[C@H](C)[C@H](NC(=O)[C@H](Cc1ccccc1)NC(=O)[C@H](CCC(=O)O)NC(=O)[C@H](CCCCN)NC(=O)[C@@H](NC(=O)[C@H](CCCCN)NC(=O)[C@H](CCC(=O)O)NC(=O)CNC(=O)[C@H](CCC(=O)O)NC(=O)[C@H](CC(C)C)NC(=O)[C@H](Cc1ccc(O)cc1)NC(=O)[C@H](CO)NC(=O)[C@H](CO)NC(=O)[C@@H](NC(=O)[C@H](CC(=O)O)NC(=O)[C@H](CO)NC(=O)[C@@H](NC(=O)[C@H](Cc1ccccc1)NC(=O)[C@@H](NC(=O)CNC(=O)[C@H](CCC(=O)O)NC(=O)C(C)(C)NC(=O)[C@@H](N)Cc1c[nH]cn1)[C@@H](C)O)[C@@H](C)O)C(C)C)C(C)C)C(=O)N[C@@H](CCC(=O)O)C(=O)N[C@@H](Cc1c[nH]cn1)C(=O)N[C@@H](CC(C)C)C(=O)N[C@H](C(=O)N[C@@H](CCC(=O)O)C(=O)N[C@@H](CCCCN)C(=O)N[C@@H](Cc1ccccc1)C(=O)N[C@@H](CCCCN)C(=O)N[C@@H](CCC(=O)O)C(=O)N[C@@H](Cc1ccccc1)C(=O)N[C@@H](Cc1ccccc1)C(N)=O)C(C)C [Compound 96, [Aib8,Glu23,Lys24,Val25,Glu30,His31,Glu34,Lys35,Phe36,Lys37]-GLP-1-(7-37)-peptidyl-Glu-Phe-Phe amide] (H-H[Aib]EGTFTSDVSSYLEGEKVKEFIEHLVEKFKEFF-NH2)	123%	
CC[C@H](C)[C@H](NC(=O)[C@H](Cc1ccccc1)NC(=O)[C@H](CCC(=O)O)NC(=O)[C@H](CCCCN)NC(=O)[C@@H](NC(=O)[C@H](C)NC(=O)[C@H](CCC(=O)O)NC(=O)CNC(=O)[C@H](CCC(=O)O)NC(=O)[C@H](CC(C)C)NC(=O)[C@H](Cc1ccc(O)cc1)NC(=O)[C@H](CO)NC(=O)[C@H](CO)NC(=O)[C@@H](NC(=O)[C@H](CC(=O)O)NC(=O)[C@H](CO)NC(=O)[C@@H](NC(=O)[C@H](Cc1ccccc1)NC(=O)[C@@H](NC(=O)CNC(=O)[C@H](CCC(=O)O)NC(=O)C(C)(C)NC(=O)[C@@H](N)Cc1c[nH]cn1)[C@@H](C)O)[C@@H](C)O)C(C)C)C(C)C)C(=O)N[C@@H](C)C(=O)N[C@@H](Cc1c[nH]c2ccccc12)C(=O)N[C@@H](CC(C)C)C(=O)N[C@H](C(=O)N[C@@H](CCC(=O)O)C(=O)N[C@@H](CCCCN)C(=O)NC(C)(C)C(=O)N[C@@H](CCCCN)C(=O)N[C@@H](CCC(=O)O)C(=O)N[C@@H](Cc1ccccc1)C(=O)N[C@@H](CC(C)C)C(=O)N[C@@H](CCC(=O)O)C(=O)N[C@@H](CCCCN)C(=O)N[C@H](C(=O)N[C@@H](CCCCN)C(=O)N[C@@H](CCC(=O)O)C(=O)N[C@@H](Cc1ccccc1)C(=O)O)C(C)C)C(C)C [Compound 97]	125%	6.39
CC[C@H](C)[C@H](NC(=O)[C@H](Cc1ccccc1)NC(=O)[C@H](CCC(=O)O)NC(=O)[C@H](CCCCN)NC(=O)[C@@H](NC(=O)[C@H](C)NC(=O)[C@H](CCC(=O)O)NC(=O)CNC(=O)[C@H](CCC(=O)O)NC(=O)[C@H](CC(C)C)NC(=O)[C@H](Cc1ccc(O)cc1)NC(=O)[C@H](CO)NC(=O)[C@H](CO)NC(=O)[C@@H](NC(=O)[C@H](CC(=O)O)NC(=O)[C@H](CO)NC(=O)[C@@H](NC(=O)[C@H](Cc1ccccc1)NC(=O)[C@@H](NC(=O)CNC(=O)[C@H](CCC(=O)O)NC(=O)C(C)(C)NC(=O)[C@@H](N)Cc1c[nH]cn1)[C@@H](C)O)[C@@H](C)O)C(C)C)C(C)C)C(=O)N[C@@H](C)C(=O)N[C@@H](Cc1c[nH]c2ccccc12)C(=O)N[C@@H](CC(C)C)C(=O)N[C@H](C(=O)N[C@@H](CCC(=O)O)C(=O)N[C@@H](CCCCN)C(=O)NC(C)(C)C(=O)N[C@@H](CCCCN)C(=O)N[C@@H](CCC(=O)O)C(=O)N[C@@H](Cc1ccccc1)C(=O)N[C@@H](CC(C)C)C(=O)N[C@@H](CCC(=O)O)C(=O)N[C@@H](CCCCN)C(=O)N[C@H](C(=O)O)C(C)C)C(C)C [Compound 98, [Aib8,Glu23,Val25,Glu34,Lys35,Aib36,Lys37]-GLP-1-(7-37)-peptidyl-Glu-Phe-Leu-Glu-Lys-Val]	132%	6.37
